Source: the NIST ThermoML archive (doi:10.1021/je100362p)

What was measured:
[1] = refractive index (Na D-line) (dimensionless); xn = mol fraction of the nth substance listed; details: 101 kPa, Liquid, Standard Abbe refractometry
[2] = xn = mol fraction of the nth substance listed; details: 101 kPa, Liquid; for speed of sound: Sing-around technique in a fixed-path interferometer

COc1ccccc1 [anisole] + CCCCCCCCCCO
Details	mass density, 298.15 K [kg/m3]	mass density, 303.15 K [kg/m3]	mass density, 308.15 K [kg/m3]	refractive index, 298.15 K	refractive index, 303.15 K	refractive index, 308.15 K	speed of sound, 298.15 K [m/s]	speed of sound, 303.15 K [m/s]	speed of sound, 308.15 K [m/s]
[1], x1 = 0.0817	–	–	–	1.43761	1.4356	1.43301	–	–	–
[1], x1 = 0.144	–	–	–	1.44029	1.43803	1.43539	–	–	–
[1], x1 = 0.2047	–	–	–	1.44304	1.44069	1.43799	–	–	–
[1], x1 = 0.273	–	–	–	1.44629	1.44389	1.44125	–	–	–
[1], x1 = 0.3484	–	–	–	1.45029	1.44799	1.44522	–	–	–
[1], x1 = 0.4099	–	–	–	1.45394	1.45164	1.44877	–	–	–
[1], x1 = 0.4874	–	–	–	1.45908	1.45684	1.45398	–	–	–
[1], x1 = 0.544	–	–	–	1.46319	1.46099	1.45815	–	–	–
[1], x1 = 0.6071	–	–	–	1.46829	1.46616	1.46323	–	–	–
[1], x1 = 0.6699	–	–	–	1.47385	1.47181	1.46884	–	–	–
[1], x1 = 0.7359	–	–	–	1.48043	1.47853	1.47539	–	–	–
[1], x1 = 0.8171	–	–	–	1.48959	1.48774	1.48475	–	–	–
[1], x1 = 0.91	–	–	–	1.50162	1.49999	1.49685	–	–	–
[1], x1 = 0.9464	–	–	–	1.50672	1.50539	1.50231	–	–	–
[1], x1 = 1	–	–	–	1.51495	1.51395	1.51095	–	–	–
[2], x1 = 0.0817	833.984	830.48	826.944	–	–	–	1377.1	1359.8	1342.7
[2], x1 = 0.144	840.044	836.478	832.875	–	–	–	1375.3	1357.9	1340.7
[2], x1 = 0.2047	846.31	842.682	839.02	–	–	–	1373.6	1356.1	1338.8
[2], x1 = 0.273	853.826	850.126	846.4	–	–	–	1371.9	1354.2	1336.8
[2], x1 = 0.3484	862.774	858.992	855.195	–	–	–	1370.2	1352.4	1334.8
[2], x1 = 0.4099	870.64	866.789	862.929	–	–	–	1369.4	1351.4	1333.6
[2], x1 = 0.4874	881.37	877.429	873.48	–	–	–	1368.8	1350.8	1332.8
[2], x1 = 0.544	889.862	885.853	881.832	–	–	–	1369.2	1350.9	1332.8
[2], x1 = 0.6071	900.075	895.987	891.877	–	–	–	1370.4	1351.9	1333.6
[2], x1 = 0.6699	911.097	906.926	902.722	–	–	–	1372.3	1353.6	1335
[2], x1 = 0.7359	923.763	919.5	915.191	–	–	–	1375.5	1356.5	1337.6
[2], x1 = 0.8171	941.067	936.682	932.241	–	–	–	1381.6	1362.2	1343
[2], x1 = 0.91	963.68	959.139	954.549	–	–	–	1392.6	1372.8	1352.9
[2], x1 = 0.9464	973.453	968.846	964.201	–	–	–	1398	1377.9	1357.9
[2], x1 = 1	989.145	984.433	979.712	–	–	–	1406.9	1386.8	1366.5
